Assay results published in PubChem BioAssay (NCI).
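Assay format: 96-well plates, 48-hour exposure. TGI marks complete inhibition of growth.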

Key:
Experiment in all cases: inhibition of tumour cell growth, NCI panel, 48 h
786-0 renal = test system: 786-0 renal
A549 NSCLC = test system: A549 NSCLC
COLO 205 colon = test system: COLO 205 colon
EKVX NSCLC = test system: EKVX NSCLC
HCT-116 colon = test system: HCT-116 colon
K-562 leukemia = test system: K-562 leukemia
M14 melanoma = test system: M14 melanoma
MOLT-4 leukemia = test system: MOLT-4 leukemia
NCI-H460 lung = test system: NCI-H460 lung
NCI/ADR-RES ovarian = test system: NCI/ADR-RES ovarian
PC-3 prostate = test system: PC-3 prostate
RPMI-8226 leukemia = test system: RPMI-8226 leukemia
SK-OV-3 ovarian = test system: SK-OV-3 ovarian
SNB-19 CNS = test system: SNB-19 CNS
SW-620 colon = test system: SW-620 colon
T-47D breast = test system: T-47D breast
UACC-257 melanoma = test system: UACC-257 melanoma
UACC-62 melanoma = test system: UACC-62 melanoma
NCI-H23 lung = test system: NCI-H23 lung
NCI-H522 lung = test system: NCI-H522 lung

Cn1c(-c2ccc(-c3cc(-c4cccs4)c(-c4cccs4)n3C)cc2)cc(-c2cccs2)c1-c1cccs1
TGI (786-0 renal): > 100 µM
TGI (A549 NSCLC): > 100 µM
TGI (COLO 205 colon): > 100 µM
TGI (EKVX NSCLC): > 100 µM
TGI (HCT-116 colon): > 100 µM
TGI (K-562 leukemia): > 100 µM
TGI (M14 melanoma): > 100 µM
TGI (MOLT-4 leukemia): > 100 µM
TGI (NCI-H460 lung): > 100 µM
TGI (NCI/ADR-RES ovarian): > 100 µM
TGI (PC-3 prostate): > 100 µM
TGI (RPMI-8226 leukemia): > 100 µM
TGI (SK-OV-3 ovarian): > 100 µM
TGI (SNB-19 CNS): > 100 µM
TGI (SW-620 colon): > 100 µM
TGI (T-47D breast): > 100 µM
TGI (UACC-257 melanoma): > 100 µM
TGI (UACC-62 melanoma): > 100 µM

C/C(=N\Nc1nc2cc(Cl)ccc2s1)c1ccccn1
TGI (A549 NSCLC): > 43.7 µM
TGI (COLO 205 colon): > 60.4 µM
TGI (EKVX NSCLC): > 35.5 µM
TGI (HCT-116 colon): > 100 µM
TGI (K-562 leukemia): > 100 µM
TGI (MOLT-4 leukemia): > 100 µM
TGI (NCI-H23 lung): 25.9 µM
TGI (NCI-H460 lung): > 100 µM
TGI (NCI-H522 lung): > 41.1 µM
TGI (PC-3 prostate): > 35.2 µM
TGI (RPMI-8226 leukemia): > 32.4 µM
TGI (SK-OV-3 ovarian): 33.6 µM
TGI (SNB-19 CNS): 15.6 µM
TGI (SW-620 colon): 23.7 µM
TGI (T-47D breast): 43.6 µM
TGI (UACC-257 melanoma): > 100 µM
TGI (UACC-62 melanoma): 10.1 µM

CN(c1ccccc1)S(=O)(=O)c1ccc([N+](=O)[O-])cc1
TGI (786-0 renal): > 100 µM
TGI (A549 NSCLC): > 100 µM
TGI (COLO 205 colon): > 100 µM
TGI (EKVX NSCLC): > 100 µM
TGI (HCT-116 colon): > 100 µM
TGI (M14 melanoma): > 100 µM
TGI (NCI-H23 lung): > 100 µM
TGI (NCI-H460 lung): > 100 µM
TGI (NCI-H522 lung): > 100 µM
TGI (NCI/ADR-RES ovarian): > 100 µM
TGI (PC-3 prostate): > 100 µM
TGI (RPMI-8226 leukemia): > 100 µM
TGI (SNB-19 CNS): > 100 µM
TGI (SW-620 colon): > 100 µM
TGI (T-47D breast): > 100 µM
TGI (UACC-257 melanoma): > 100 µM

Cc1c(Cc2ccccc2)n(C(C)OCCN(OC(=O)Oc2ccccc2)C(=O)Oc2ccccc2)c(=O)[nH]c1=O (configuration not stated)
TGI (786-0 renal): 34.3 µM
TGI (A549 NSCLC): 73.9 µM
TGI (COLO 205 colon): 34.9 µM
TGI (EKVX NSCLC): 30.4 µM
TGI (HCT-116 colon): 41.6 µM
TGI (K-562 leukemia): 93.5 µM
TGI (M14 melanoma): 32 µM
TGI (MOLT-4 leukemia): 46.3 µM
TGI (NCI-H23 lung): 31 µM
TGI (NCI-H460 lung): 32.7 µM
TGI (NCI-H522 lung): 29.3 µM
TGI (NCI/ADR-RES ovarian): 39.1 µM
TGI (PC-3 prostate): 58.9 µM
TGI (RPMI-8226 leukemia): 79.6 µM
TGI (SK-OV-3 ovarian): 46.3 µM
TGI (SNB-19 CNS): > 100 µM
TGI (SW-620 colon): 41.7 µM
TGI (UACC-257 melanoma): 30.2 µM
TGI (UACC-62 melanoma): 30.5 µM

O=C(c1ccccc1)N1CCN(C(=S)NC2CCCCC2)C1=S
TGI (786-0 renal): 52.2 µM
TGI (A549 NSCLC): 30.6 µM
TGI (COLO 205 colon): 34 µM
TGI (EKVX NSCLC): 38.3 µM
TGI (HCT-116 colon): 32.6 µM
TGI (K-562 leukemia): 96.8 µM
TGI (M14 melanoma): 31.3 µM
TGI (MOLT-4 leukemia): 56 µM
TGI (NCI-H23 lung): 36.1 µM
TGI (NCI-H460 lung): 49.5 µM
TGI (NCI-H522 lung): 30.6 µM
TGI (NCI/ADR-RES ovarian): 43.6 µM
TGI (SK-OV-3 ovarian): 65.6 µM
TGI (SW-620 colon): 55.6 µM
TGI (T-47D breast): 53.1 µM
TGI (UACC-257 melanoma): 38.6 µM
TGI (UACC-62 melanoma): 35.6 µM

Nc1nc(Cl)cc(OCC2(CO)CCCC2)n1
TGI (786-0 renal): > 100 µM
TGI (A549 NSCLC): > 100 µM
TGI (EKVX NSCLC): > 100 µM
TGI (HCT-116 colon): > 100 µM
TGI (K-562 leukemia): > 100 µM
TGI (MOLT-4 leukemia): > 100 µM
TGI (NCI-H23 lung): > 100 µM
TGI (NCI-H460 lung): > 100 µM
TGI (NCI-H522 lung): > 100 µM
TGI (NCI/ADR-RES ovarian): > 100 µM
TGI (PC-3 prostate): > 100 µM
TGI (RPMI-8226 leukemia): > 100 µM
TGI (SNB-19 CNS): > 100 µM
TGI (SW-620 colon): > 100 µM
TGI (UACC-257 melanoma): > 100 µM

CC(C)=CC1C(C(=O)Oc2ccccc2C(C)C)C1(C)C (configuration not stated)
TGI (786-0 renal): 42.5 µM
TGI (A549 NSCLC): > 100 µM
TGI (EKVX NSCLC): 36.5 µM
TGI (HCT-116 colon): 50.9 µM
TGI (K-562 leukemia): 83.8 µM
TGI (M14 melanoma): > 100 µM
TGI (NCI-H23 lung): 65.4 µM
TGI (NCI-H460 lung): 47 µM
TGI (NCI-H522 lung): 35.5 µM
TGI (NCI/ADR-RES ovarian): > 100 µM
TGI (RPMI-8226 leukemia): 48.2 µM
TGI (SK-OV-3 ovarian): > 100 µM
TGI (SNB-19 CNS): > 100 µM
TGI (SW-620 colon): 66 µM
TGI (T-47D breast): 50.3 µM
TGI (UACC-257 melanoma): 44.2 µM
TGI (UACC-62 melanoma): > 100 µM

CC(=O)C(=O)NC1/C=C(C)\C=C/C(O)C/C=C(C)\C=C/C(O)CC2OC(=O)C1(C)C(=O)C2C (configuration not stated)
TGI (A549 NSCLC): > 100 µM
TGI (COLO 205 colon): > 100 µM
TGI (EKVX NSCLC): > 100 µM
TGI (HCT-116 colon): > 100 µM
TGI (K-562 leukemia): > 100 µM
TGI (MOLT-4 leukemia): > 100 µM
TGI (NCI-H23 lung): > 100 µM
TGI (NCI-H460 lung): > 100 µM
TGI (NCI-H522 lung): > 100 µM
TGI (NCI/ADR-RES ovarian): > 100 µM
TGI (RPMI-8226 leukemia): 98.9 µM
TGI (SK-OV-3 ovarian): > 100 µM
TGI (SNB-19 CNS): > 100 µM
TGI (SW-620 colon): > 100 µM
TGI (UACC-257 melanoma): > 100 µM
TGI (UACC-62 melanoma): > 100 µM

O=C(NC(=S)Nc1ccc([N+](=O)[O-])cc1)c1ccc2c(c1)Sc1ccccc1O2
TGI (786-0 renal): > 100 µM
TGI (A549 NSCLC): > 100 µM
TGI (COLO 205 colon): > 100 µM
TGI (HCT-116 colon): > 100 µM
TGI (K-562 leukemia): > 100 µM
TGI (M14 melanoma): > 100 µM
TGI (MOLT-4 leukemia): > 100 µM
TGI (NCI-H23 lung): > 100 µM
TGI (NCI-H460 lung): > 100 µM
TGI (NCI-H522 lung): > 100 µM
TGI (NCI/ADR-RES ovarian): > 100 µM
TGI (PC-3 prostate): > 100 µM
TGI (SK-OV-3 ovarian): > 100 µM
TGI (SNB-19 CNS): > 100 µM
TGI (SW-620 colon): > 100 µM
TGI (T-47D breast): > 100 µM
TGI (UACC-257 melanoma): > 100 µM
TGI (UACC-62 melanoma): > 100 µM

Cn1cnc(N2CCCC2)c(C#N)c1=S
TGI (786-0 renal): > 100 µM
TGI (A549 NSCLC): > 100 µM
TGI (COLO 205 colon): > 100 µM
TGI (EKVX NSCLC): > 100 µM
TGI (HCT-116 colon): > 100 µM
TGI (K-562 leukemia): > 100 µM
TGI (M14 melanoma): > 100 µM
TGI (MOLT-4 leukemia): > 100 µM
TGI (NCI-H23 lung): > 100 µM
TGI (NCI-H460 lung): > 100 µM
TGI (NCI-H522 lung): > 100 µM
TGI (NCI/ADR-RES ovarian): > 100 µM
TGI (PC-3 prostate): > 100 µM
TGI (RPMI-8226 leukemia): > 100 µM
TGI (SNB-19 CNS): > 100 µM
TGI (SW-620 colon): > 100 µM
TGI (T-47D breast): > 100 µM
TGI (UACC-257 melanoma): > 100 µM
TGI (UACC-62 melanoma): > 100 µM

CN(C)CN1CSC(=S)N(CN(C)C)C1
TGI (786-0 renal): > 100 µM
TGI (A549 NSCLC): > 100 µM
TGI (EKVX NSCLC): > 100 µM
TGI (HCT-116 colon): > 100 µM
TGI (K-562 leukemia): > 100 µM
TGI (M14 melanoma): > 100 µM
TGI (MOLT-4 leukemia): 92.4 µM
TGI (NCI-H23 lung): > 100 µM
TGI (NCI-H460 lung): > 100 µM
TGI (NCI-H522 lung): > 100 µM
TGI (NCI/ADR-RES ovarian): > 100 µM
TGI (PC-3 prostate): 42.7 µM
TGI (SNB-19 CNS): > 100 µM
TGI (SW-620 colon): > 100 µM
TGI (T-47D breast): > 100 µM
TGI (UACC-257 melanoma): > 100 µM
TGI (UACC-62 melanoma): > 100 µM

CN1CCN(C(=O)CCC(=O)Nc2cc3c(c4ccccc24)-c2ccc4ccccc4c2C3)CC1
TGI (786-0 renal): 3.13 µM
TGI (A549 NSCLC): 3.96 µM
TGI (COLO 205 colon): 3 µM
TGI (EKVX NSCLC): 3.13 µM
TGI (HCT-116 colon): 2.95 µM
TGI (M14 melanoma): 2.97 µM
TGI (NCI-H23 lung): 3.47 µM
TGI (NCI-H460 lung): 3.72 µM
TGI (NCI-H522 lung): 3.2 µM
TGI (NCI/ADR-RES ovarian): 4.55 µM
TGI (PC-3 prostate): 3.37 µM
TGI (SK-OV-3 ovarian): 3.09 µM
TGI (SNB-19 CNS): 3.93 µM
TGI (T-47D breast): 3.57 µM
TGI (UACC-257 melanoma): 3.24 µM
TGI (UACC-62 melanoma): 3.32 µM

Cc1nn(C(=O)c2ccccc2O)c2c1C(c1ccc(O)cc1O)SC(N)=N2 (configuration not stated)
TGI (786-0 renal): > 10 µM
TGI (A549 NSCLC): > 10 µM
TGI (COLO 205 colon): > 10 µM
TGI (EKVX NSCLC): > 10 µM
TGI (HCT-116 colon): > 10 µM
TGI (K-562 leukemia): > 10 µM
TGI (M14 melanoma): > 10 µM
TGI (MOLT-4 leukemia): > 10 µM
TGI (NCI-H23 lung): > 10 µM
TGI (NCI-H460 lung): > 10 µM
TGI (NCI/ADR-RES ovarian): 9.33 µM
TGI (PC-3 prostate): > 10 µM
TGI (RPMI-8226 leukemia): > 10 µM
TGI (SK-OV-3 ovarian): > 10 µM
TGI (SNB-19 CNS): > 10 µM
TGI (SW-620 colon): > 10 µM
TGI (UACC-62 melanoma): 5.71 µM
